Tested on: Wild-type Caenorhabditis elegans
Assay: Experiment on the lifespan of Caenorhabditis elegans
Assay type: in vivo
Conditions: for longest lifespan of the nematodes / Median survival time (time to half death) / day when death occurs compared with the control group / time to half death compared with the control group (significance) / longest lifespan, days longer than that of the control group / time to half death longer than in the control group: 10 nM; for Median survival time (time to half death): Kaplan-Meier, Median ± SE; for day when death occurs compared with the control group / time to half death compared with the control group (significance): in words; for longest lifespan, days longer than that of the control group / time to half death longer than in the control group: vs control group
Protocol: Synchronization of Caenorhabditis elegans: The NGM plate with a moderate nematode density was selected. The larvae at the L4 stage were picked with a pick needle for about 20 in total and transferred into the blank NGM plate. After they developed into adults and laid the first batch of eggs, all the adults were picked out. About 12 hours later, the eggs hatched into larvae, to obtain the synchronized larvae at the L1 stage. Preliminary preparation for the experiment on the lifespan of Caenorhabditis elegans: The NGM was washed with 1 mL of M9 buffer. The resulting buffer containing the larvae at the L1 stage was collected into an EP tube, placed in a chromatographic cabinet at 4° C. for 5 min, and centrifuged at 1500× g/4° C. for 3 min. The supernatant was removed. After 100 μL of buffer was resuspended, the nematodes were counted under a microscope, and the nematodes were diluted to a concentration of 30 worms/10 μL. 10 μL of diluted nematodes were added into the NGM plate inoculated with E. coli OP50, and the nematodes were counted under the microscope to ensure that there were about 30 nematodes. The NGM plate was placed in a constant temperature incubator to culture. Experiment on the lifespan of Caenorhabditis elegans: After the nematodes at the L1 stage developed to the L4 stage, 100 μL of 15.6 μg/mL 5-FUDR was added for inhibition of Caenorhabditis elegans from oviposition. After the nematodes developed to adults, the dosing started, and the nematodes were divided into a control group and a 10 nM dose group, which was recorded as day 1 of the lifespan experiment. After that, the dosing was carried out every day, the numbers of nematodes that survived, died, and unexpectedly died were observed and recorded every day, and the status of the nematodes was observed and recorded, until the last nematode died. […] The dead nematodes need to be picked out of the plate. The E. coli OP50 needs to be added in time when exhausted. Kaplan-Meier statistical analysis was carried out on the data, and the data results were expressed as Median±SE. Compared with the control group, *P<0.05 represents a significant difference, and **P<0.01 represents a very significant difference.

## PPTTKFAA [WD1]
  longest lifespan of the nematodes: 31 days
  Median survival time (time to half death): 21.000 days
  day when death occurs compared with the control group: no significant difference
  time to half death compared with the control group (significance): does not have a significant difference
  longest lifespan, days longer than that of the control group: 3 days
  time to half death longer than in the control group: 1 days
Day 0, 10 nM
  Number of remaining nematodes: 29
Day 1, 10 nM
  Number of remaining nematodes: 29
Day 2, 10 nM
  Number of remaining nematodes: 29
Day 3, 10 nM
  Number of remaining nematodes: 29
Day 4, 10 nM
  Number of remaining nematodes: 29
Day 5, 10 nM
  Number of remaining nematodes: 29
Day 6, 10 nM
  Number of remaining nematodes: 29
Day 7, 10 nM
  Number of remaining nematodes: 29
Day 8, 10 nM
  Number of remaining nematodes: 29
Day 9, 10 nM
  Number of remaining nematodes: 29
Day 10, 10 nM
  Number of remaining nematodes: 28
Day 11, 10 nM
  Number of remaining nematodes: 27
Day 12, 10 nM
  Number of remaining nematodes: 24
Day 13, 10 nM
  Number of remaining nematodes: 24
Day 14, 10 nM
  Number of remaining nematodes: 22
Day 15, 10 nM
  Number of remaining nematodes: 20
Day 16, 10 nM
  Number of remaining nematodes: 20
Day 17, 10 nM
  Number of remaining nematodes: 19
Day 18, 10 nM
  Number of remaining nematodes: 19
Day 19, 10 nM
  Number of remaining nematodes: 16
Day 20, 10 nM
  Number of remaining nematodes: 15
Day 21, 10 nM
  Number of remaining nematodes: 14
Day 22, 10 nM
  Number of remaining nematodes: 12
Day 23, 10 nM
  Number of remaining nematodes: 10
Day 24, 10 nM
  Number of remaining nematodes: 9
Day 25, 10 nM
  Number of remaining nematodes: 8
Day 26, 10 nM
  Number of remaining nematodes: 6
Day 27, 10 nM
  Number of remaining nematodes: 5
Day 28, 10 nM
  Number of remaining nematodes: 4
Day 29, 10 nM
  Number of remaining nematodes: 1
Day 30, 10 nM
  Number of remaining nematodes: 1
Day 31, 10 nM
  Number of remaining nematodes: 1
Day 32, 10 nM
  Number of remaining nematodes: 0
Day 33, 10 nM
  Number of remaining nematodes: 0
Day 34, 10 nM
  Number of remaining nematodes: 0
Day 35, 10 nM
  Number of remaining nematodes: 0
Day 36, 10 nM
  Number of remaining nematodes: 0
Day 37, 10 nM
  Number of remaining nematodes: 0
Day 38, 10 nM
  Number of remaining nematodes: 0

## PTTKFAA [WD2]
  longest lifespan of the nematodes: 32 days
  Median survival time (time to half death): 21.000 days
  day when death occurs compared with the control group: no significant difference
  time to half death compared with the control group (significance): does not have a significant difference
  longest lifespan, days longer than that of the control group: 4 days
  time to half death longer than in the control group: 1 days
Day 0, 10 nM
  Number of remaining nematodes: 26
Day 1, 10 nM
  Number of remaining nematodes: 26
Day 2, 10 nM
  Number of remaining nematodes: 26
Day 3, 10 nM
  Number of remaining nematodes: 26
Day 4, 10 nM
  Number of remaining nematodes: 26
Day 5, 10 nM
  Number of remaining nematodes: 26
Day 6, 10 nM
  Number of remaining nematodes: 26
Day 7, 10 nM
  Number of remaining nematodes: 26
Day 8, 10 nM
  Number of remaining nematodes: 26
Day 9, 10 nM
  Number of remaining nematodes: 26
Day 10, 10 nM
  Number of remaining nematodes: 26
Day 11, 10 nM
  Number of remaining nematodes: 25
Day 12, 10 nM
  Number of remaining nematodes: 23
Day 13, 10 nM
  Number of remaining nematodes: 23
Day 14, 10 nM
  Number of remaining nematodes: 22
Day 15, 10 nM
  Number of remaining nematodes: 21
Day 16, 10 nM
  Number of remaining nematodes: 21
Day 17, 10 nM
  Number of remaining nematodes: 20
Day 18, 10 nM
  Number of remaining nematodes: 18
Day 19, 10 nM
  Number of remaining nematodes: 16
Day 20, 10 nM
  Number of remaining nematodes: 14
Day 21, 10 nM
  Number of remaining nematodes: 13
Day 22, 10 nM
  Number of remaining nematodes: 11
Day 23, 10 nM
  Number of remaining nematodes: 9
Day 24, 10 nM
  Number of remaining nematodes: 9
Day 25, 10 nM
  Number of remaining nematodes: 7
Day 26, 10 nM
  Number of remaining nematodes: 7
Day 27, 10 nM
  Number of remaining nematodes: 5
Day 28, 10 nM
  Number of remaining nematodes: 3
Day 29, 10 nM
  Number of remaining nematodes: 2
Day 30, 10 nM
  Number of remaining nematodes: 1
Day 31, 10 nM
  Number of remaining nematodes: 1
Day 32, 10 nM
  Number of remaining nematodes: 1
Day 33, 10 nM
  Number of remaining nematodes: 0
Day 34, 10 nM
  Number of remaining nematodes: 0
Day 35, 10 nM
  Number of remaining nematodes: 0
Day 36, 10 nM
  Number of remaining nematodes: 0
Day 37, 10 nM
  Number of remaining nematodes: 0
Day 38, 10 nM
  Number of remaining nematodes: 0

## TTKFAA [WD3]
  longest lifespan of the nematodes: 33 days
  Median survival time (time to half death): 21.000 days
  day when death occurs compared with the control group: no significant difference
  time to half death compared with the control group (significance): does not have a significant difference
  longest lifespan, days longer than that of the control group: 5 days
  time to half death longer than in the control group: 1 days
Day 0, 10 nM
  Number of remaining nematodes: 28
Day 1, 10 nM
  Number of remaining nematodes: 28
Day 2, 10 nM
  Number of remaining nematodes: 28
Day 3, 10 nM
  Number of remaining nematodes: 28
Day 4, 10 nM
  Number of remaining nematodes: 28
Day 5, 10 nM
  Number of remaining nematodes: 28
Day 6, 10 nM
  Number of remaining nematodes: 28
Day 7, 10 nM
  Number of remaining nematodes: 28
Day 8, 10 nM
  Number of remaining nematodes: 28
Day 9, 10 nM
  Number of remaining nematodes: 28
Day 10, 10 nM
  Number of remaining nematodes: 28
Day 11, 10 nM
  Number of remaining nematodes: 27
Day 12, 10 nM
  Number of remaining nematodes: 27
Day 13, 10 nM
  Number of remaining nematodes: 27
Day 14, 10 nM
  Number of remaining nematodes: 22
Day 15, 10 nM
  Number of remaining nematodes: 20
Day 16, 10 nM
  Number of remaining nematodes: 20
Day 17, 10 nM
  Number of remaining nematodes: 20
Day 18, 10 nM
  Number of remaining nematodes: 20
Day 19, 10 nM
  Number of remaining nematodes: 17
Day 20, 10 nM
  Number of remaining nematodes: 15
Day 21, 10 nM
  Number of remaining nematodes: 14
Day 22, 10 nM
  Number of remaining nematodes: 11
Day 23, 10 nM
  Number of remaining nematodes: 10
Day 24, 10 nM
  Number of remaining nematodes: 9
Day 25, 10 nM
  Number of remaining nematodes: 6
Day 26, 10 nM
  Number of remaining nematodes: 6
Day 27, 10 nM
  Number of remaining nematodes: 5
Day 28, 10 nM
  Number of remaining nematodes: 4
Day 29, 10 nM
  Number of remaining nematodes: 2
Day 30, 10 nM
  Number of remaining nematodes: 1
Day 31, 10 nM
  Number of remaining nematodes: 1
Day 32, 10 nM
  Number of remaining nematodes: 1
Day 33, 10 nM
  Number of remaining nematodes: 1
Day 34, 10 nM
  Number of remaining nematodes: 0
Day 35, 10 nM
  Number of remaining nematodes: 0
Day 36, 10 nM
  Number of remaining nematodes: 0
Day 37, 10 nM
  Number of remaining nematodes: 0
Day 38, 10 nM
  Number of remaining nematodes: 0

— US12404301B2, “Polypeptide having anti-aging activity, and application thereof” (NANJING ANJI BIOLOGICAL TECHNOLOGY CO., LTD., priority 2020, dated 2025)
